Laboratory results reported in patent publication US20160031868A1, “BENZIMIDAZOLONE DERIVATIVES AS BROMODOMAIN INHIBITORS” (GILEAD SCIENCES, INC., priority 2013, published 2016).

What was measured:
[1] = MT-4 proliferation assay in 384-well format (Cell Titer Glo); assay type: cell-based, human; details: human, MT-4 cells, Table 1, 50% decrease in luminescence signal, read-out: CC50 MT4 384
Method: (§1) Compounds were tested in a standardized high-throughput 384-well assay format. Each compound was serially diluted 3-fold in 100% DMSO in polypropylene 384-well plates using a Biomek FX Workstation, and 0.4 μL compound added to an assay plate containing 40 μL RPMI media. Compounds were arranged in a horizontal pattern, with 10 concentrations per compound, and 8 compounds added per plate. Due to low DMSO tolerability, the final DMSO concentration never exceeded 0.5% (v/v). Each assay plate contained 10 μM Puromycin and 0.5% DMSO in RPMI-1640 as positive and negative controls respectively. MT-4 cells (HTLV-1 transformed, human T lymphoblastoid cells, NIH Aids Reagent program) were added in volumes of 35 μL per well and 2,000 cells per well using a Biotek uFlow Workstation (Biotek, Winooski, Vt.), and the plates subsequently incubated for 5 days at 37° C. in an incubator set at 5% CO2 and 90% humidity.
(§2) After 5 days, 22 μL Cell Titer Glo (Promega) was added to the assay plates with a Biotek uFlow Workstation. Plates were subsequently placed on a Perkin Elmer Envision Plate Reader for 5 minutes before the luminescence signal was read. CC50 values were calculated from the compound concentration that caused a 50% decrease in luminescence signal, a measure of toxicity, and calculated by non-linear regression using Pipeline Pilot software (Accelrys, San Diego, Calif.).

BRD4-1 [2] = target: T1, BRD4-1 (Homo sapiens, UniProt O60885); experiment: Biochemical HTRF (TR-FRET) assay: BRD4-1 binding to acetylated histone H4 peptide; details: 200 nM H4 peptide, 60 nM BRD4-1, 60 min at 25 °C; geometric mean; read-out: IC50 HTBS BRD4-1 HTRF
T1 construct: made in house; host or cells: Escherichia coli
Method: (§3) Binding of the two tandem bromodomains, BRD4 I and BRD4—2, to an acetylated histone H4 peptide were measured using a homogeneous time resolved fluorescence resonance energy transfer (TR-FRET) assay. The synthetic peptide containing amino acids 1-18 of histone H4 was acetylated at lysine 5, 8, 12, 16 and conjugated to biotin ([…]-GSGSK-biotin) was purchased from Millipore. BRD4_I and BRD4—2 were expressed and purified from Escherichia coli as N-terminal His6-tagged proteins. An XL665 labeled anti-His antibody (Cisbio) was used to specifically bind BRD4 and a cryptate labeled streptavidin protein was used because it specifically recognized the biotinylated H4 peptide. […] Assays were performed in 50 mM Hepes (pH 7.5), 150 mM NaCl, 0.1 mg/ml BSA, 0.01% (v/v) Brij, 0.5% (v/v) DMSO and 200 nM H4 peptide at the following concentrations for each BRD4 isoform: 60 nM BRD4—1 and 120 nM BRD4—2. After an assay reaction time of 60 minutes at 25° C., binding was measured with 2 nM cryptate labeled streptavidin and 10 nM anti-His-XL665 antibody. TR-FRET signal was detected on an Envision plate reader (Ex: 320 nm; Em: 615/665 nm; 100 μs delay and 200 μs read window). Data were normalized based on a positive (2 μM I-BET) and negative (DMSO) controls and IC50 values were calculated from the fit of the dose-response curves to a four-parameter equation. All IC50 values represent geometric mean values of a minimum of four determinations. These assays generally produced results within 3-fold of the reported mean.

BRD4-2 = target: T2, BRD4-2 (Homo sapiens, UniProt O60885); experiment: Biochemical HTRF (TR-FRET) assay: BRD4-2 binding to acetylated histone H4 peptide; details: 200 nM H4 peptide, 120 nM BRD4-2, 60 min at 25 °C; geometric mean; read-out: IC50 HTBS BRD4-2 HTRF
T2 construct: made in house; host or cells: Escherichia coli
Method: as §3

BRD4-1 [3] = target: T1, BRD4-1; experiment: Biochemical ALPHA assay: binding of BRD4_1 to acetylated histone H4 peptide; details: 200 nM H4 peptide, 15 nM BRD4_1, 60 min at 25 °C; geometric mean of min. four determinations
Method: Binding of the bromodomain BRD4_I to an acetylated histone H4 peptide was measured using a bead based Amplified Luminescent Proximity Homogeneous Assay (ALPHA). The synthetic peptide containing amino acids 1-18 of histone H4 was acetylated at lysine 5, 8, 12, 16 and conjugated to biotin ([…]-GSGSK-biotin) was purchased from Millipore. BRD4_I was expressed and purified from Escherichia coli as an N-terminal Hiss-tagged protein. Nickel-Chelate ALPHA acceptor beads (Perkin Elmer) were used to specifically bind BRD4—1 and ALPHA streptavidin donor beads (Perkin Elmer) were used because they specifically recognized the biotinylated H4 peptide. […] Assays were performed in 50 mM Hepes (pH 7.5), 150 mM NaCl, 0.1 mg/ml BSA, 0.01% (v/v) Brij, 0.5% (v/v) DMSO, 200 nM H4 peptide and 15 nM of BRD4—1 protein. After an assay reaction time of 60 minutes at 25° C., binding was measured with 20 µg/ml streptavidin donor beads and 20 μg/ml nickel-chelate acceptor beads. ALPHA signal was detected on an Envision plate reader ([…]; Em: 570 nm; Ex time: 180 ms). Data were normalized based on a positive (2 μM I-BET) and negative (DMSO) controls and IC50 values were calculated from the fit of the dose-response curves to a four-parameter equation. All IC50 values represent geometric mean values of a minimum of four determinations. These assays generally produced results within 3-fold of the reported mean.

MT-4 cells = experiment: MT-4 proliferation assay in 384-well format (Cell Titer Glo); assay type: cell-based, human; details: Table 1, 5 days, 50% decrease in luminescence signal, read-out: CC50 MT4 384
Method: as §1, §2

| SMILES | IC50 (BRD4-1 [2]) | IC50 (BRD4-2) | IC50 (BRD4-1 [3]) | CC50 at 5 days [1] | CC50 (MT-4 cells) |
| --- | --- | --- | --- | --- | --- |
| Cc1ccc2ncccc2c1-c1cc(-c2c(C)noc2C)cc2[nH]c(=O)oc12 [Example 11, 5-(3,5-dimethylisoxazol-4-yl)-7-(6-methylquinolin-5-yl)benzo[d]oxazol-2(3H)-one] | 438 nM | 174 nM | 222 nM | 421 nM | – |
| Cc1noc(C)c1-c1cc(-c2c(C)noc2C)c2c(c1)[nH]c(=O)n2C [Example 9] | 497 nM | 227 nM | 270 nM | 204 nM | – |
| Cc1ccc2ncccc2c1-c1cc(-c2c(C)noc2C)cc2[nH]c(=O)[nH]c12 (single isomer, unassigned) [Example 13] | – | – | 45.2 nM | – | 51.6 nM |
| Cc1ccc2ncccc2c1-c1cc(-c2c(C)noc2C)cc2[nH]c(=O)[nH]c12 (single isomer, unassigned) [Example 14] | – | – | 14 nM | – | 9.54 nM |
| Cc1noc(C)c1-c1cc(-c2cccc3c2CCC(=O)N3C)c2[nH]c(=O)[nH]c2c1 [Example 6, 5-(6-(3,5-dimethylisoxazol-4-yl)-2-oxo-2,3-dihydro-1H-benzo[d]imidazol-4-yl)-1-methyl-3,4-dihydroquinolin-2(1H)-one] | 132 nM | 108 nM | 46.8 nM | 53.9 nM | – |
| Cc1noc(C)c1-c1cc(-c2cccnc2-c2ccccc2)c2oc(=O)[nH]c2c1 [Example 12, 5-(3,5-dimethylisoxazol-4-yl)-7-(2-phenylpyridin-3-yl)benzo[d]oxazol-2(3H)-one] | 316 nM | 314 nM | 233 nM | 761 nM | – |

Now from value to compound, other results behind:

| IC50 (BRD4-1 [2]) | IC50 (BRD4-2) | IC50 (BRD4-1 [3]) | SMILES | CC50 at 5 days [1] | CC50 (MT-4 cells) |
| --- | --- | --- | --- | --- | --- |
| 119 nM | 141 nM | 37.2 nM | Cc1noc(C)c1-c1cc(-c2cccnc2-c2ccccc2)c2[nH]c(=O)[nH]c2c1 [Example 4, 6-(3,5-dimethylisoxazol-4-yl)-4-(2-phenylpyridin-3-yl)-1H-benzo[d]imidazol-2(3H)-one] | 103 nM | – |
| 350 nM | 144 nM | 234 nM | Cc1cnn(C)c1-c1cc(-c2c(C)noc2C)cc2[nH]c(=O)[nH]c12 [Example 5] | 233 nM | – |
| 135 nM | 119 nM | 30.8 nM | Cc1ccc2ncccc2c1-c1cc(-c2c(C)noc2C)cc2[nH]c(=O)[nH]c12 (racemic) [Example 2, 6-(3,5-dimethylisoxazol-4-yl)-4-(6-methylquinolin-5-yl)-1H-benzo[d]imidazol-2(3H)-one] | 19 nM | – |
